From patent publication US20240209028A1, “CNP COMPOUNDS” (priority 2022, published 2024)
Starred links: 1 amine or outer side, 2 acyl side, 3 side chain; linkers in the order of their positions; H or OH if unused. Positions of bridges follow the written chain, without caps; N, C: chain ends. Residues, ends and D or L forms follow the SMILES beside them. *: point of attachment. C18 diacid = O=C(O)CCCCCCCCCCCCCCCCC(=O)*; γGlu = O=C(O)[C@H](CCC(=O)[*:2])N[*:1]; AEEA = NCCOCCOCC(=O)O

Target: T1, human natriuretic peptide receptor 2 (hNPR2) (Homo sapiens, UniProt P20594)
T1 construct: expressed in transfected cells; host or cells: HEK293 (ATCC CRL-1573), clone 35, co-transfected with pGloSensor-42F
T1 sequence (P20594 23-1047): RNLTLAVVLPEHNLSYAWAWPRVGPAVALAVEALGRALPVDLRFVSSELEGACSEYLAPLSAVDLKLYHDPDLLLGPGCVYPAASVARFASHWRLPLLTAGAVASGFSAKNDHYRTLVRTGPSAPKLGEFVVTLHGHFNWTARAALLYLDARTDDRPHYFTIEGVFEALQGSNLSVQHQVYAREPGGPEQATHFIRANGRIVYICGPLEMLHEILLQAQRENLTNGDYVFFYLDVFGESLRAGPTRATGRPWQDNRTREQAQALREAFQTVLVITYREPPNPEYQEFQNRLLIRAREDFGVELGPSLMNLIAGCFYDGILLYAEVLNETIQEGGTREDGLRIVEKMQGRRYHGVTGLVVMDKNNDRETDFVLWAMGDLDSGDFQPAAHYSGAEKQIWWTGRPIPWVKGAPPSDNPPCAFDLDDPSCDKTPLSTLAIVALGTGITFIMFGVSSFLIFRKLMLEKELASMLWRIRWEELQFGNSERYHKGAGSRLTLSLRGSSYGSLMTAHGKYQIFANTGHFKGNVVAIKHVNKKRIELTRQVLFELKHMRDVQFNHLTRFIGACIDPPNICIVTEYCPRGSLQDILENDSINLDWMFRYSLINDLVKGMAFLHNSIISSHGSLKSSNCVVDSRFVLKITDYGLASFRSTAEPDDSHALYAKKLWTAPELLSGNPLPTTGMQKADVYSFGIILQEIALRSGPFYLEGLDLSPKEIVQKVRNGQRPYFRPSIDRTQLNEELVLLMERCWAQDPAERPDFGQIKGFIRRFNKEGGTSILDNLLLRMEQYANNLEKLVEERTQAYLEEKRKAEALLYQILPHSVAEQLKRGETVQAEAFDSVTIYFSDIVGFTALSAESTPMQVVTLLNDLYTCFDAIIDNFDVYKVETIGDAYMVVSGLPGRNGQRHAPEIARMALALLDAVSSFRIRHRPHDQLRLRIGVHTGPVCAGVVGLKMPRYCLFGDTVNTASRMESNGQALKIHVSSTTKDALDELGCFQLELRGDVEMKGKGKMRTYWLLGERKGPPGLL
Experiment: In vitro hNPR2 activity assay (cGMP GloSensor reporter, HEK293)
Type: cell-based
Conditions: 0% HSA; HEK293-hNPR2/GloSensor cells
In short: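 Potency is the EC50 from a four-parameter logistic fit, also expressed relative to the in-plate CNP22 control (×100), with at least two replicates. Compounds (ten concentrations, […], HSA-free diluent with 1% OVA, 0.01% Tween20) were incubated 30 min at 37 °C on HEK293 cells co-expressing hNPR2 and a GloSensor cGMP luciferase. Luminescence detected with Bright-Glo.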

Row | Structure (SMILES) | EC50
1 | CC[C@H](C)[C@@H]1NC(=O)[C@H](CCCNC(=N)N)NC(=O)[C@H](CC(=O)O)NC(=O)[C@H](CC(C)C)NC(=O)[C@H](CCCCN)NC(=O)[C@H](CC(C)C)NC(=O)CNC(=O)[C@H](Cc2ccccc2)NC(=O)[C@@H](NC(=O)CNC(=O)[C@H](CCCCN)NC(=O)[C@H](CO)NC(=O)[C@H](CC(C)C)NC(=O)CNC(=O)[C@H](CCCCN)NC(=O)[C@H](CCCCN)NC(=O)[C@H](CCC(N)=O)NC(=O)[C@H](C)NC(=O)CNC(=O)[C@H](Cc2c[nH]cn2)NC(=O)[C@H](CCC(=O)O)NC(=O)COCCOCCNC(=O)COCCOCCNC(=O)CC[C@H](NC(=O)CCCCCCCCCCCCCCCCC(=O)O)C(=O)O)CSSC[C@@H](C(=O)O)NC(=O)CNC(=O)[C@H](CC(C)C)NC(=O)CNC(=O)[C@H](CO)NC(=O)[C@H](CC(C)C)NC(=O)[C@H](CO)NC(=O)CNC1=O [compound 1235] | 1.17 nM

Same assay, conditions: potency relative to CNP22 (0065)

Row | Structure (SMILES) | hNPR2 0% HSA. [EC50% rel CNP]
2 | CC[C@H](C)[C@@H]1NC(=O)[C@H](CCCNC(=N)N)NC(=O)[C@H](CC(=O)O)NC(=O)[C@H](CC(C)C)NC(=O)[C@@H]2CCCN2C(=O)[C@H](CC(C)C)NC(=O)CNC(=O)[C@H](Cc2ccccc2)NC(=O)[C@@H](NC(=O)CNC(=O)[C@H](CO)NC(=O)[C@H](CO)NC(=O)[C@@H](NC(=O)CNC(=O)[C@@H](NC(=O)[C@H](CCCCN)NC(=O)[C@H](CCC(N)=O)NC(=O)[C@H](C)NC(=O)CNC(=O)[C@H](Cc2c[nH]cn2)NC(=O)[C@H](Cc2ccc(O)cc2)NC(=O)COCCOCCNC(=O)COCCOCCNC(=O)CC[C@H](NC(=O)CCCCCCCCCCCCCCCCC(=O)O)C(=O)O)[C@@H](C)O)C(C)C)CSSC[C@@H](C(=O)O)NC(=O)CNC(=O)[C@H](CC(C)C)NC(=O)CNC(=O)[C@H](CO)NC(=O)[C@H](CC(C)C)NC(=O)[C@H](CO)NC(=O)CNC1=O [compound 1303] ({C18 diacid-γGlu-AEEA-AEEA}-YHGAQKTGVSSGCFGLPLDRIGSLSGLGC-OH; disulfide 13-29) | 25.5%
3 | CC[C@H](C)[C@@H]1NC(=O)[C@H](CCCNC(=N)N)NC(=O)[C@H](CC(=O)O)NC(=O)[C@H](CC(C)C)NC(=O)[C@H](CCCCN)NC(=O)[C@H](CC(C)C)NC(=O)CNC(=O)[C@H](Cc2ccccc2)NC(=O)[C@@H](NC(=O)CNC(=O)[C@H](CCCCN)NC(=O)[C@H](CO)NC(=O)[C@H](CC(C)C)NC(=O)CNC(=O)[C@H](CCCCN)NC(=O)[C@H](CCCCN)NC(=O)[C@H](CCC(N)=O)NC(=O)[C@H](C)NC(=O)CNC(=O)[C@H](Cc2c[nH]cn2)NC(=O)[C@H](CCC(=O)O)NC(=O)COCCOCCNC(=O)COCCOCCNC(=O)CC[C@H](NC(=O)CCCCCCCCCCCCCCCCC(=O)O)C(=O)O)CSSC[C@@H](C(=O)O)NC(=O)CNC(=O)[C@H](CC(C)C)NC(=O)CNC(=O)[C@H](CO)NC(=O)[C@H](CC(C)C)NC(=O)[C@H](CO)NC(=O)CNC1=O [compound 1235] | 27.2%
4 | CC[C@H](C)[C@@H]1NC(=O)[C@H](CCCNC(=N)N)NC(=O)[C@H](CC(=O)O)NC(=O)[C@H](CC(C)C)NC(=O)[C@@H]2CCCN2C(=O)[C@H](CC(C)C)NC(=O)CNC(=O)[C@H](Cc2ccccc2)NC(=O)[C@@H](NC(=O)CNC(=O)[C@H](CO)NC(=O)[C@H](CO)NC(=O)[C@H](CC(C)C)NC(=O)CNC(=O)[C@H](CCCCN)NC(=O)[C@H](CCCCN)NC(=O)[C@H](CCC(N)=O)NC(=O)[C@H](C)NC(=O)CNC(=O)[C@H](CCC(=O)O)NC(=O)[C@H](Cc2ccc(O)cc2)NC(=O)CNC(=O)CNC(=O)CNC(=O)COCCOCCNC(=O)COCCOCCNC(=O)CC[C@H](NC(=O)CCCCCCCCCCCCCCCCC(=O)O)C(=O)O)CSSC[C@@H](C(=O)O)NC(=O)CNC(=O)[C@H](CC(C)C)NC(=O)CNC(=O)[C@H](CO)NC(=O)[C@H](CC(C)C)NC(=O)[C@H](CO)NC(=O)CNC1=O [compound 1378] ({C18 diacid-γGlu-AEEA-AEEA}-GGGYEGAQKKGLSSGCFGLPLDRIGSLSGLGC-OH; disulfide 16-32) | 28.6%
5 | CC[C@H](C)[C@@H]1NC(=O)[C@H](CCCNC(=N)N)NC(=O)[C@H](CC(=O)O)NC(=O)[C@H](CC(C)C)NC(=O)[C@@H]2CCCN2C(=O)[C@H](CC(C)C)NC(=O)CNC(=O)[C@H](Cc2ccccc2)NC(=O)[C@@H](NC(=O)CNC(=O)[C@H](CCC(N)=O)NC(=O)[C@H](CO)NC(=O)[C@H](CC(C)C)NC(=O)CNC(=O)[C@H](CCCCN)NC(=O)[C@H](CCCCN)NC(=O)[C@H](CCC(N)=O)NC(=O)[C@H](C)NC(=O)CNC(=O)[C@H](CCCCN)NC(=O)[C@H](Cc2ccc(O)cc2)NC(=O)[C@H](CCCCN)NC(=O)[C@H](CCCNC(=N)N)NC(=O)[C@H](C)NC(=O)COCCOCCNC(=O)COCCOCCNC(=O)COCCOCCNC(=O)COCCOCCNC(=O)CC[C@H](NC(=O)CC[C@H](NC(=O)CC[C@H](NC(=O)CC[C@H](NC(=O)CC[C@H](NC(=O)CCCCCCCCCCCCCCCCC(=O)O)C(=O)O)C(=O)O)C(=O)O)C(=O)O)C(=O)O)CSSC[C@@H](C(=O)O)NC(=O)CNC(=O)[C@H](CC(C)C)NC(=O)CNC(=O)[C@H](CO)NC(=O)[C@H](CC(C)C)NC(=O)[C@H](CO)NC(=O)CNC1=O [compound 9407] ({C18 diacid-γGlu-γGlu-γGlu-γGlu-γGlu-AEEA-AEEA-AEEA-AEEA}-ARKYKGAQKKGLSQGCFGLPLDRIGSLSGLGC-OH; disulfide 16-32) | 38.6%
6 | CC[C@H](C)[C@@H]1NC(=O)[C@H](CCCNC(=N)N)NC(=O)[C@H](CC(=O)O)NC(=O)[C@H](CC(C)C)NC(=O)[C@@H]2CCCN2C(=O)[C@H](CC(C)C)NC(=O)CNC(=O)[C@H](Cc2ccccc2)NC(=O)[C@@H](NC(=O)CNC(=O)[C@H](CO)NC(=O)[C@H](CO)NC(=O)[C@H](CC(C)C)NC(=O)CNC(=O)[C@H](CCCCN)NC(=O)[C@H](CCCCN)NC(=O)[C@H](CCC(N)=O)NC(=O)[C@H](C)NC(=O)CNC(=O)[C@H](CCCCN)NC(=O)[C@H](Cc2ccc(O)cc2)NC(=O)[C@H](CCCCN)NC(=O)[C@H](CCCNC(=N)N)NC(=O)[C@H](C)NC(=O)[C@H](CCC(N)=O)NC(=O)[C@@H]2CCCN2C(=O)[C@H](Cc2c[nH]cn2)NC(=O)[C@H](CCC(=O)O)NC(=O)[C@H](CCC(N)=O)NC(=O)COCCOCCNC(=O)COCCOCCNC(=O)CC[C@H](NC(=O)CC[C@H](NC(=O)CC[C@H](NC(=O)CC[C@H](NC(=O)CCCCCCCCCCCCCCCCC(=O)O)C(=O)O)C(=O)O)C(=O)O)C(=O)O)CSSC[C@@H](C(=O)O)NC(=O)CNC(=O)[C@H](CC(C)C)NC(=O)CNC(=O)[C@H](CO)NC(=O)[C@H](CC(C)C)NC(=O)[C@H](CO)NC(=O)CNC1=O [compound 1473] ({C18 diacid-γGlu-γGlu-γGlu-γGlu-AEEA-AEEA}-QEHPQARKYKGAQKKGLSSGCFGLPLDRIGSLSGLGC-OH; disulfide 21-37; C-terminus assumed) | 107.7%
7 | CC[C@H](C)[C@@H]1NC(=O)[C@H](CCCNC(=N)N)NC(=O)[C@H](CC(=O)O)NC(=O)[C@H](CC(C)C)NC(=O)[C@@H]2CCCN2C(=O)[C@H](CC(C)C)NC(=O)CNC(=O)[C@H](Cc2ccccc2)NC(=O)[C@@H](NC(=O)CNC(=O)[C@H](CO)NC(=O)[C@H](CO)NC(=O)[C@H](CC(C)C)NC(=O)CNC(=O)[C@H](CCCCN)NC(=O)[C@H](CCCCN)NC(=O)[C@H](CCC(N)=O)NC(=O)[C@H](C)NC(=O)CNC(=O)[C@H](CCCCN)NC(=O)[C@H](Cc2ccc(O)cc2)NC(=O)[C@H](CCCCN)NC(=O)[C@H](CCCNC(=N)N)NC(=O)[C@H](C)NC(=O)[C@H](CCC(N)=O)NC(=O)[C@@H]2CCCN2C(=O)[C@H](Cc2c[nH]cn2)NC(=O)[C@H](CCC(=O)O)NC(=O)[C@H](CCC(N)=O)NC(=O)CC[C@H](NC(=O)CC[C@H](NC(=O)CC[C@H](NC(=O)CC[C@H](NC(=O)CCCCCCCCCCCCCCCCC(=O)O)C(=O)O)C(=O)O)C(=O)O)C(=O)O)CSSC[C@@H](C(=O)O)NC(=O)CNC(=O)[C@H](CC(C)C)NC(=O)CNC(=O)[C@H](CO)NC(=O)[C@H](CC(C)C)NC(=O)[C@H](CO)NC(=O)CNC1=O [compound 1389] ({C18 diacid-γGlu-γGlu-γGlu-γGlu}-QEHPQARKYKGAQKKGLSSGCFGLPLDRIGSLSGLGC-OH; disulfide 21-37) | 52.3%
8 | CC[C@H](C)[C@@H]1NC(=O)[C@H](CCCNC(=N)N)NC(=O)[C@H](CC(=O)O)NC(=O)[C@H](CC(C)C)NC(=O)[C@@H]2CCCN2C(=O)[C@H](CC(C)C)NC(=O)CNC(=O)[C@H](Cc2ccccc2)NC(=O)[C@@H](NC(=O)CNC(=O)[C@H](CCC(N)=O)NC(=O)[C@H](CO)NC(=O)[C@H](CO)NC(=O)CNC(=O)[C@H](CCCCN)NC(=O)[C@H](CCCCN)NC(=O)[C@H](CCC(N)=O)NC(=O)[C@H](C)NC(=O)CNC(=O)[C@@H]2CCCN2C(=O)[C@H](C)NC(=O)[C@H](CCC(N)=O)NC(=O)CNC(=O)[C@@H]2CCCN2C(=O)[C@H](C)NC(=O)[C@H](CCC(N)=O)NC(=O)CNC(=O)[C@@H]2CCCN2C(=O)[C@H](C)NC(=O)[C@H](CCC(N)=O)NC(=O)CNC(=O)COCCOCCNC(=O)COCCOCCNC(=O)CC[C@H](NC(=O)CCCCCCCCCCCCCCCCC(=O)O)C(=O)O)CSSC[C@@H](C(=O)O)NC(=O)CNC(=O)[C@H](CC(C)C)NC(=O)CNC(=O)[C@H](CO)NC(=O)[C@H](CC(C)C)NC(=O)[C@H](CO)NC(=O)CNC1=O [compound 1457] ({C18 diacid-γGlu-AEEA-AEEA}-GQAPGQAPGQAPGAQKKGSSQGCFGLPLDRIGSLSGLGC-OH; disulfide 23-39) | 79.4%
